In US9040714B2 (MannKind Corporation, priority 2010, dated 2015):

Test system: XBP-1 splicing in liver and kidney
Assay: XBP-1 splicing inhibition in livers and kidneys of mice after tunicamycin
Assay type: in vivo, CB17 SCID mice
Details: 1 mg/kg IP, relative to PBS treated mice
Description: The preclinical validation strategy employs a set of animal models representing normal tissues under chemical stress and multiple myeloma xenography. The normal animal model is employed as a surrogate model where dose-related on-target activity of compounds can be confirmed in tissues sensitive to standard UPR inducing agents such as tunicamycin (Wu et al., Dev Cell. 2007 September; 13 (1d):351-64). […] Upon induction with tunicamycin, tissues induce active XBP-1 mRNA, splicing, and this activity is suppressed by IRE-1α inhibitors. This on-target ER stress animal model is a useful screening and early pharmacokinetic tool.
CB17 SCID mice were treated with 1 mg/kg tunicamycin by intraperitoneal (IP) injection at time 0 (T=0). Two hours later, compound A formulated in 10% hydroxy beta propyl cyclo dextran HBPCD was administered by IP injection. Doses were 50 mg/kg, 25 mg/kg and 10 mg/kg (4 mice in each group). Mice were sacrificed two hours later (4 hours from T=0), and the designated organs were harvested (FIG. 3A).
RT-PCR analysis was performed using murine-specific XBP-1 primers from total RNA harvested from specified organs. […] Each lane represents an individual mouse where RNA was harvested and RT-PCR was performed. Method of RNA extraction and RT-PCR analysis is described in Volkmann et al., J. Biol. Chem. 286, 12743-55, 2011. […]

tunicamycin
induction of XBP-1 spliced (XBP-1s): induces XBP-1 spliced (XBP-1s)
